Measurements from patent publication US20020136691A1, “Pharmacological evaluation test (PET) in animals for continuous assessment of physiological functions” (priority 2000, published 2002).

How the values were obtained:
Sprague Dawley rats [1] = type: in vivo
Protocol: Additional CNS monitoring was performed following pulmonary function assessment in that arm of the study. Rats were returned to their home cages and at 65 minutes post-dosing, the rats were placed in Plexiglas observation cylinders. Compound treated rats were systematically compared to vehicle treated rats for behavioral, neurologic and autonomic changes according to a modification of the method described by Irwin. […] The following functions were assessed: increased/decreased motor activity, ataxia, paralysis, tremor, convulsions, abnormal respiration, enhanced salivation, skin color, abnormal feces, death, righting reflex, visual orientation, grip reflex, muscle tone, rectal body temperature, and tail pinch. Body temperatures were also recorded both prior to dosing (baseline) and during modified Irwin testing post-dosing using a Yellow Springs Instruments Telethermometer and rectal probe or equivalent. Following modified Irwin testing, rats were administered anesthesia to effect and blood was collected.
For body temperatures, CBC values, clinical chemistry values, plasma levels and organ weight ratios, means were calculated (±standard deviation or standard error of the mean) and reported where applicable. Statistical evaluations for compound related effects were performed using the Student's t test (paired) and reported as significant if p<0.05.

Sprague Dawley rats [2] = test: Cardiovascular monitoring (blood pressure, heart rate) by DSI telemetry; type: in vivo
Protocol: For the cardiovascular/renal function arm, a Data Sciences International (DSI, St Paul, Minn.) TA11PA-C40 implant was placed in the abdominal aorta of each rat.
Cardiovascular function and motility were assessed in conscious freely moving rats using DSI telemetry recording equipment. On the day of recording, the rats were placed into metabolism cages for simultaneous urine collection. Parameters monitored included blood pressure (BP), heart rate (HR) and activity. Measurements were taken at scheduled intervals (i.e., 10 sec. of data collection once every 2 min. for each rat) over 24 hours. An appropriate baseline period of at least 30 minutes was collected prior to animal dosing. For dosing, rats were briefly removed from their cage, weighed, dosed and returned.
Blood pressure, heart rate and activity were measured for 10 seconds once every 2 minutes for 24 hours. Blood pressure and heart rate were routinely evaluated at baseline, 30 min, 1 h, 2 h, 4 h, 6 h, 8 h, 12 h, 16 h and 20 h post-administration. The last 20 minutes before the start of treatment on Day 1, time-point values were averaged and taken as the baseline value for each rat. The other time-point values were obtained by averaging data 10 minutes prior and 10 minutes post each time-point. […] An analysis of variance was performed with the factors: treatment, animal (according to treatment), time, and treatment time interaction; time incorporated all measurements on the four days. The adjusted mean values post-treatment were compared with baseline. If there was a significant treatment time interaction, tests were performed for comparing the three treatment groups for each time-point. If such a test was significant, the adjusted mean values of the treated group were compared with the concurrent vehicle group for this time-point.

Sprague Dawley rats [3] = test: Pulmonary function, BUXCO unrestrained whole body plethysmograph; type: in vivo
Protocol: For rats in the pulmonary/CNS arm, pulmonary function (respiratory frequency and tidal volume) was assessed incorporating the BUXCO Unrestrained Whole Body Plethysmograph technique. Rats were placed in a BUXCO chamber, and a 10-minute baseline-recording period was collected. Following the baseline-recording period, the rats were removed from the chambers, orally dosed and returned for a 60-minute period of data collection. At the conclusion of the experiment, the rats were removed from the chambers, and tested for modified Irwin profiling.
The respiratory signal was measured continuously for 10 minutes prior to dosing and […] post-dosing. Respiratory frequency and tidal volume were then extracted from this respiratory signal, and evaluated on a breath-by-breath basis over the course of a one-minute period. These calculated breath-by-breath values for respiratory frequency and tidal volume were averaged over 5-minute segments for the extent of the monitoring period. The time course for these values was then plotted as the mean ±standard deviation for each group studied. An analysis of variance similar to that described above for cardiovascular parameters was also performed.

Wistar rats = conditions: 1, 3 or 10 mg/kg p.o., acute
[4] = Body weight, PET rat study; type: in vivo, Sprague Dawley rats; conditions: 300 and 1000 mg/kg p.o., subacute; males and females (FIG. 3)
Protocol: FIG. 3. […] Individual rat body weights were recorded daily in grams using an Ohaus Navigator™ digital balance.
Male and female Sprague Dawley rats from Charles River were used in these experiments. For the “standard” protocol, a total of 48 rats were used. Twenty-four rats (12 female rats and 12 male rats) were placed in the acute pulmonary function/CNS evaluation arm of the study, and 24 rats (12 female rats and 12 male rats) were placed in the subacute cardiovascular/renal arm of the study. Rats in both arms were further divided into 4 subgroups (3 male rats and 3 female rats) which were dosed with vehicle or compound at dose 1, dose 2; or dose 3. Rats in the pulmonary function/CNS evaluation arm of the study were administered a single dose of vehicle or compound. […]
Rats in the cardiovascular/renal function arm of the study (with telemetry implants) were administered daily doses of vehicle or compound for 5 days. Blood pressure, heart rate and motility were continuously monitored 24 hours/day over four days via telemetry recording. Urine was collected 0-8 and 8-24 hours post-dosing on Days 1 and 4 and assessed for changes in volume output and electrolyte excretion. […]
Cardiovascular function and motility were assessed in conscious freely moving rats using DSI telemetry recording equipment. […] Parameters monitored included blood pressure (BP), heart rate (HR) and activity. […]

Sprague Dawley rats [5] = test: Renal function monitoring (urine collection in metabolism cages); type: in vivo; conditions: 10 and 30 mg/kg p.o., acute; males and females (FIG. 4)
Protocol: Renal function monitoring was conducted simultaneously with cardiovascular testing. Urine was collected for 0-8 and 8-24 hour time-points. Prior to telemetry data collection, DSI receivers equipped with special mounting strips were hung upside down on metabolism racks (Lab Products, Maywood, N.J.). Metabolism cages were then suspended from the DSI receivers and assembled to provide for food, water, and urine collection. […] Rats were weighed and placed into the recording metabolism cages for a baseline collection period (i.e., 30 minutes). After baseline, each rat was removed, dosed and returned. Pre-weighed collection tubes were placed under each metabolism cage. At 8 hours, the collection tubes were removed, weighed, and replaced with another set of pre-weighed tubes for the 8-24 hour time-point. At 24 hours, collection tubes were again removed and weighed. Following the 24 hour urine collection, rats were anesthetized and blood was collected.
Renal function was evaluated in the cardiovascular/renal function arm. Urine volume was calculated gravimetrically at each time-point. Urine flow was then calculated by (urine volume/time times or ×100/body weight (g)). Flow values were then plotted as the mean ±standard deviation for each group. […] Statistical significance (p<0.05) was assessed using the paired Student's t test.

Q: For C[C@H](N)Cc1ccccc1 [d-amphetamine], which “Overt behavioral effects observed” value (Sprague Dawley rats [1]; 2 and 8 mg/kg p.o., male and female, acute and subacute) is on record?
A: increased motility, sniffing, rearing, head weaving and vocalization

Q: What about the BP (Sprague Dawley rats [2]; males, 8 mg/kg p.o.) of the same compound?
A: slightly increased

Q: And the HR (Sprague Dawley rats [2]; males, 8 mg/kg p.o.)?
A: slightly increased

Q: And the Respiratory frequency (Sprague Dawley rats [3]; 2 and 8 mg/kg p.o., male and female, acute and subacute dosing (FIG. 1))?
A: increased in a dose dependent manner

Q: Which Body temperature (Wistar rats) does the source give for COC(=O)C1=C(C)NC(C)=C(C(=O)OC)C1c1ccccc1[N+](=O)[O-] [nifedipine] here?
A: No effects

Q: What about the Heart rate (Wistar rats) of the same compound?
A: dose dependent increase

Q: And the Motility (Wistar rats)?
A: No effects

Q: And the Respiration (Wistar rats)?
A: No effects

Q: What does the source list for C[C@]12C=CC(=O)C=C1CC[C@@H]1[C@@H]2[C@@H](O)C[C@@]2(C)[C@H]1CC[C@]2(O)C(=O)CO [prednisolone]?
A: Effects in the CV system (Sprague Dawley rats [2]; 300 and 1000 mg/kg p.o.): No relevant effects; Body weight [4]: decrease in body weight

Q: Which “Modified Irwin profiling” value (Sprague Dawley rats [1]; rat, in vivo) does the source give for CN1C(=O)CN=C(c2ccccc2)c2cc(Cl)ccc21 [diazepam] here?
A: dose dependent effects on motility, coordination, muscle tone and body temperature

Q: And the “Effects in the CV system” value (Sprague Dawley rats [2]; 20 and 80 mg/kg p.o.)?
A: No relevant effects

Q: What about the “Effects in the pulmonary system” value (Sprague Dawley rats [3]; 20 and 80 mg/kg p.o.) of the same compound?
A: No relevant effects

Q: With NS(=O)(=O)c1cc(C(=O)O)c(NCc2ccco2)cc1Cl [furosemide] as the compound, how does the Urine output (Sprague Dawley rats [5]) read?
A: dose dependently increased
